Measured values as given in patent US10221129B2, “Inhibitors of human immunodeficiency virus replication” (ViiV HEALTHCARE UK (NO.5) LIMITED, priority 2015, dated 2019).

Key:
[1] = test system: recombinant NL4-3 virus (nef section replaced with Renilla luciferase gene) in MT-2 cells; test: HIV cell culture assay (antiviral activity, luciferase readout); assay type: cell-based; settings: Renilla, NL43, MT-2 cells infected for 4-5 days with recombinant NL4-3 Renilla luciferase virus
In short: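 Serial compound dilutions tested in MT-2 cells infected for 4-5 days with 293T-derived NL4-3 virus carrying Renilla luciferase in place of part of nef. Antiviral activity quantified as luciferase activity, read with a live-cell substrate.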

[2] = Compound cytotoxicity, XTT-based colorimetric assay; assay type: cell-based; settings: human, uninfected MT2 cells, day 4, XTT
In short: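 Run under the antiviral-assay protocol but without virus. Viability was read on day 4 and CC50 values were derived from the readout.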

COc1ccc(N(C)C(=O)[C@H](Cc2ccccc2)NC(=O)NS(=O)(=O)N(C)c2cccc(OC)c2)cc1 [JB-34]
EC50 [1]: 80 nM | CC50 at 4 days [2]: > 100000 nM

COc1ccc(N(C)C(=O)[C@H](Cc2ccccc2)NC(=O)NS(=O)(=O)N(C)c2ccc(Cl)cc2)cc1 [JB-35]
EC50 [1]: 80 nM | CC50 at 4 days [2]: > 100000 nM

COc1ccc(N(C)C(=O)[C@H](Cc2ccccc2)NC(=O)NS(=O)(=O)Nc2ccc3[nH]cnc3c2)cc1 [JB-36]
EC50 [1]: 2260 nM | CC50 at 4 days [2]: > 100000 nM

COc1ccc(N(C)C(=O)[C@H](Cc2ccccc2)NC(=O)NS(=O)(=O)N(C)c2cccc(Cl)c2)cc1 [JB-37]
EC50 [1]: 60 nM | CC50 at 4 days [2]: > 100000 nM

COc1ccc(N(C)C(=O)[C@H](Cc2ccccc2)NC(=O)NS(=O)(=O)NCc2ccccc2F)cc1 [JB-38]
EC50 [1]: 1600 nM | CC50 at 4 days [2]: > 100000 nM

COc1ccc(N(C)C(=O)[C@H](Cc2ccccc2)NC(=O)NS(=O)(=O)NCc2ccccn2)cc1 [JB-39]
EC50 [1]: 1380 nM | CC50 at 4 days [2]: > 100000 nM

COc1ccc(N(C)C(=O)[C@H](Cc2ccccc2)NC(=O)NS(=O)(=O)N(C)C(c2ccccc2)c2ccccc2)cc1 [JB-40]
EC50 [1]: 2880 nM | CC50 at 4 days [2]: 66500 nM

CCc1ccc(CN(C)S(=O)(=O)NC(=O)N[C@@H](Cc2ccccc2)C(=O)N(C)c2ccc(OC)cc2)cc1 [JB-41]
EC50 [1]: 5060 nM | CC50 at 4 days [2]: > 33300 nM

COc1ccc(N(C)C(=O)[C@H](Cc2ccccc2)NC(=O)NS(=O)(=O)NCc2nccs2)cc1 [JB-43]
EC50 [1]: 760 nM | CC50 at 4 days [2]: > 100000 nM

COc1ccc(N(C)C(=O)[C@H](Cc2ccccc2)NC(=O)NS(=O)(=O)N2Cc3ccncc3C2)cc1 [JB-44]
EC50 [1]: 1750 nM | CC50 at 4 days [2]: > 100000 nM

COc1ccc(N(C)C(=O)[C@H](Cc2ccccc2)NC(=O)NS(=O)(=O)NCc2cnc3ccccc3c2)cc1 [JB-45]
EC50 [1]: 9450 nM | CC50 at 4 days [2]: > 50000 nM

COc1ccc(N(C)C(=O)[C@H](Cc2ccccc2)NC(=O)NS(=O)(=O)Nc2cc(F)cc(F)c2)cc1 [JB-46]
EC50 [1]: 80 nM | CC50 at 4 days [2]: > 100000 nM

COc1ccc(N(C)C(=O)[C@H](Cc2ccccc2)NC(=O)NS(=O)(=O)NCc2cccc(-n3cccn3)c2)cc1 [JB-47]
EC50 [1]: 3410 nM | CC50 at 4 days [2]: > 100000 nM

COc1ccc(N(C)C(=O)[C@H](Cc2ccccc2)NC(=O)NS(=O)(=O)Nc2cc(F)ccc2F)cc1 [JB-48]
EC50 [1]: 170 nM | CC50 at 4 days [2]: > 100000 nM

COc1ccc(N(C)C(=O)[C@H](Cc2ccccc2)NC(=O)NS(=O)(=O)Nc2cc(Cl)ccc2F)cc1 [JB-49]
EC50 [1]: 200 nM | CC50 at 4 days [2]: > 100000 nM

COc1ccc(N(C)C(=O)[C@H](Cc2ccccc2)NC(=O)NS(=O)(=O)Nc2ccc(F)cc2)cc1 [JB-50]
EC50 [1]: 100 nM | CC50 at 4 days [2]: > 100000 nM

COc1ccc(N(C)C(=O)[C@H](Cc2ccccc2)NC(=O)NS(=O)(=O)Nc2ccc(F)c(F)c2)cc1 [JB-51]
EC50 [1]: 110 nM | CC50 at 4 days [2]: > 100000 nM

COc1ccc(N(C)C(=O)[C@H](Cc2ccccc2)NC(=O)NS(=O)(=O)Nc2ccc(NC(=O)N(C)C)cc2)cc1 [JB-52]
EC50 [1]: 5940 nM | CC50 at 4 days [2]: > 100000 nM

COc1ccc(N(C)C(=O)[C@H](Cc2ccccc2)NC(=O)NS(=O)(=O)N2CCCCC2c2ccccc2)cc1 (some centres unmarked) [JB-53]
EC50 [1]: 1100 nM | CC50 at 4 days [2]: 85500 nM

COc1ccc(N(C)C(=O)[C@H](Cc2ccccc2)NC(=O)NS(=O)(=O)NCc2ccc3nc(C)[nH]c3c2)cc1 [JB-54]
EC50 [1]: 12000 nM | CC50 at 4 days [2]: > 100000 nM

COc1ccc(N(C)C(=O)[C@H](Cc2ccccc2)NC(=O)NS(=O)(=O)NCc2cncn2C)cc1 [JB-55]
EC50 [1]: 14800 nM | CC50 at 4 days [2]: > 100000 nM

COc1ccc(N(C)C(=O)[C@H](Cc2ccccc2)NC(=O)NS(=O)(=O)NCc2ccccc2)cc1 [JB-56]
EC50 [1]: 1870 nM | CC50 at 4 days [2]: > 100000 nM

COc1ccc(N(C)C(=O)[C@H](Cc2ccccc2)NC(=O)NS(=O)(=O)NCc2cccc(F)c2)cc1 [JB-57]
EC50 [1]: 6430 nM | CC50 at 4 days [2]: > 100000 nM

COc1ccc(N(C)C(=O)[C@H](Cc2ccccc2)NC(=O)NS(=O)(=O)NC(C)c2cccc(C)n2)cc1 (some centres unmarked) [JB-58]
EC50 [1]: 690 nM | CC50 at 4 days [2]: > 100000 nM

COc1ccc(N(C)C(=O)[C@H](Cc2ccccc2)NC(=O)NS(=O)(=O)NCc2cc(C)on2)cc1 [JB-59]
EC50 [1]: 1860 nM | CC50 at 4 days [2]: > 100000 nM

COc1ccc(N(C)C(=O)[C@H](Cc2ccccc2)NC(=O)NS(=O)(=O)NC(C)c2cnn(C)c2C)cc1 (some centres unmarked) [JB-60]
EC50 [1]: 270 nM | CC50 at 4 days [2]: > 100000 nM

COc1ccc(N(C)C(=O)[C@H](Cc2ccccc2)NC(=O)NS(=O)(=O)Nc2cccc(C(N)=O)c2)cc1 [JB-61]
EC50 [1]: 4910 nM | CC50 at 4 days [2]: > 100000 nM

COC(=O)Nc1ccc(NS(=O)(=O)NC(=O)N[C@@H](Cc2ccccc2)C(=O)N(C)c2ccc(OC)cc2)cc1 [JB-62]
EC50 [1]: 290 nM | CC50 at 4 days [2]: > 100000 nM

COc1ccc(N(C)C(=O)[C@H](Cc2ccccc2)NC(=O)NS(=O)(=O)NCc2nccn2C)cc1 [JB-63]
EC50 [1]: 6500 nM | CC50 at 4 days [2]: > 100000 nM

COc1ccc(N(C)C(=O)[C@H](Cc2ccccc2)NC(=O)NS(=O)(=O)NC(C)c2csc(C)n2)cc1 (some centres unmarked) [JB-64]
EC50 [1]: 680 nM | CC50 at 4 days [2]: > 100000 nM

COc1ccc(N(C)C(=O)[C@H](Cc2ccccc2)NC(=O)NS(=O)(=O)NC(C)c2cccnc2)cc1 (some centres unmarked) [JB-65]
EC50 [1]: 620 nM | CC50 at 4 days [2]: > 100000 nM

COc1ccc(N(C)C(=O)[C@H](Cc2ccccc2)NC(=O)NS(=O)(=O)N(C)Cc2n[nH]c(=O)[nH]2)cc1 [JB-69]
EC50 [1]: 3690 nM | CC50 at 4 days [2]: > 100000 nM

CCOc1ccc(N(CC)C(=O)[C@H](Cc2ccccc2)NC(=O)NS(=O)(=O)N2CCc3cc(C)ccc32)cc1 [JB-70]
EC50 [1]: 100 nM | CC50 at 4 days [2]: > 33300 nM

CCOc1ccc(N(CC)C(=O)[C@H](Cc2ccccc2)NC(=O)NS(=O)(=O)N2CCc3cccnc32)cc1 [JB-71]
EC50 [1]: 130 nM | CC50 at 4 days [2]: > 33300 nM

CCOc1ccc(N(CC)C(=O)[C@H](Cc2ccccc2)NC(=O)NS(=O)(=O)N2CCc3c(Cl)cccc32)cc1 [JB-72]
EC50 [1]: 180 nM | CC50 at 4 days [2]: > 33300 nM

CCOc1ccc(N(CC)C(=O)[C@H](Cc2ccccc2)NC(=O)NS(=O)(=O)N2CCc3ccccc32)cc1 [JB-73]
EC50 [1]: 50 nM | CC50 at 4 days [2]: > 33300 nM

CCOc1ccc(N(CC)C(=O)[C@H](Cc2ccccc2)NC(=O)NS(=O)(=O)N2CCc3cc(OC)cc(C)c32)cc1 [JB-74]
EC50 [1]: 1120 nM | CC50 at 4 days [2]: > 100000 nM

CCOc1ccc(N(CC)C(=O)[C@H](Cc2ccccc2)NC(=O)NS(=O)(=O)n2ccc3ccccc32)cc1 [JB-75]
EC50 [1]: 70 nM | CC50 at 4 days [2]: > 33300 nM

CCOc1ccc(N(CC)C(=O)[C@H](Cc2ccccc2)NC(=O)NS(=O)(=O)N2CCc3cc(Cl)cc(Cl)c32)cc1 [JB-76]
EC50 [1]: 8750 nM | CC50 at 4 days [2]: > 33300 nM

COc1ccc(N(C)C(=O)[C@H](Cc2ccccc2)NC(=O)NS(=O)(=O)n2ccc3cccnc32)cc1 [JB-77]
EC50 [1]: 450 nM | CC50 at 4 days [2]: > 100000 nM

COc1ccc(N(C)C(=O)[C@H](Cc2ccccc2)NC(=O)NS(=O)(=O)n2ccc3c(F)c(F)c(F)c(F)c32)cc1 [JB-78]
EC50 [1]: 370 nM | CC50 at 4 days [2]: > 33300 nM

COc1ccc(N(C)C(=O)[C@H](Cc2ccccc2)NC(=O)NS(=O)(=O)N2Cc3ccccc3S2(=O)=O)cc1 [JB-79]
EC50 [1]: 8610 nM | CC50 at 4 days [2]: > 100000 nM

COc1ccc(N(C)C(=O)[C@H](Cc2ccccc2)NC(=O)NS(=O)(=O)n2ccc3cnccc32)cc1 [JB-80]
EC50 [1]: 360 nM | CC50 at 4 day [2]: > 100000 nM

CCOc1ccc(NS(=O)(=O)NC(=O)N[C@@H](Cc2ccccc2)C(=O)N(C)c2ccc(OC)cc2)cc1 [JB-81]
EC50 [1]: 260 nM | CC50 at 4 days [2]: > 100000 nM

CN(C(=O)[C@H](Cc1cc(F)cc(F)c1)NC(=O)NS(=O)(=O)N1CCCc2ccccc21)c1ccc2scnc2c1 [VN-5]
EC50 [1]: 40 nM | CC50 at 4 days [2]: 95900 nM

CN(C(=O)[C@H](Cc1cc(F)cc(F)c1)NC(=O)NS(=O)(=O)n1ccc2cccnc21)c1ccc2scnc2c1 [VN-8]
EC50 [1]: 50 nM | CC50 at 4 days [2]: > 100000 nM

CN(C(=O)[C@H](Cc1cc(F)cc(F)c1)NC(=O)NS(=O)(=O)N1CCCc2cccnc21)c1ccc2scnc2c1 [VN-9]
EC50 [1]: 10 nM | CC50 at 4 days [2]: > 100000 nM

Cc1ccc2c(n1)N(S(=O)(=O)NC(=O)N[C@@H](Cc1cc(F)cc(F)c1)C(=O)N(C)c1ccc3scnc3c1)CCC2 [VN-12]
EC50 [1]: 10 nM | CC50 at 4 days [2]: > 50000 nM

CN(C(=O)[C@H](Cc1cc(F)cc(F)c1)NC(=O)NS(=O)(=O)N(C)C)c1ccc2scnc2c1 [VN-16]
EC50 [1]: 30 nM | CC50 at 4 days [2]: > 100000 nM

CN(C(=O)[C@H](Cc1cc(F)cc(F)c1)NC(=O)NS(=O)(=O)N1CCc2ccnnc21)c1ccc2scnc2c1 [VN-17]
EC50 [1]: 70 nM | CC50 at 4 days [2]: > 100000 nM

CCN(CC)S(=O)(=O)NC(=O)N[C@@H](Cc1cc(F)cc(F)c1)C(=O)N(C)c1ccc2scnc2c1 [VN-21]
EC50 [1]: 20 nM | CC50 at 4 days [2]: > 33300 nM

CN(C(=O)[C@H](Cc1cc(F)cc(F)c1)NC(=O)NS(=O)(=O)N1CCCC1)c1ccc2scnc2c1 [VN-22]
EC50 [1]: 50 nM | CC50 at 4 days [2]: > 100000 nM

CN(C(=O)[C@H](Cc1cc(F)cc(F)c1)NC(=O)NS(=O)(=O)N1CCOCC1)c1ccc2scnc2c1 [VN-23]
EC50 [1]: 170 nM | CC50 at 4 days [2]: > 100000 nM

CN(C(=O)[C@H](Cc1cc(F)cc(F)c1)NC(=O)NS(=O)(=O)N1CCCCC1)c1ccc2scnc2c1 [VN-24]
EC50 [1]: 90 nM | CC50 at 4 days [2]: > 100000 nM

CN(C(=O)[C@H](Cc1cc(F)cc(F)c1)NC(=O)NS(N)(=O)=O)c1ccc2scnc2c1 [VN-25]
EC50 [1]: 150 nM | CC50 at 4 days [2]: 79600 nM

CN(C(=O)[C@H](Cc1cc(F)cc(F)c1)NC(=O)NS(=O)(=O)N1CC[C@H](O)C1)c1ccc2scnc2c1 [VN-26]
EC50 [1]: 110 nM | CC50 at 4 days [2]: 20000 nM

CN(C(=O)[C@H](Cc1cc(F)cc(F)c1)NC(=O)NS(=O)(=O)N1CC[C@@H](O)C1)c1ccc2scnc2c1 [VN-27]
EC50 [1]: 90 nM | CC50 at 4 days [2]: > 100000 nM

CN(C(=O)[C@H](Cc1cc(F)cc(F)c1)NC(=O)N1CCN(C)S1(=O)=O)c1ccc2scnc2c1 [VN-28]
EC50 [1]: 250 nM | CC50 at 4 days [2]: > 100000 nM
